Measurements: article PMC9317316, “Synthesis and Evaluation of Some New 4H-Pyran Derivatives as Antioxidant, Antibacterial and Anti-HCT-116 Cells of CRC, with Molecular Docking, Antiproliferative, Apoptotic and ADME Investigations” (Pharmaceuticals, 2022)
Several values for one entry are separate records, joined by “and”; a condition that tells them apart may be missing. Equal values may be shown once. Read-outs that look alike come from different tables or passages of the source.

Experiments:
S. enteric (ATCC 43972) = assay: Antibacterial viability (CFU) assay, IC50; assay type: cell-based
Procedure: (§1) The results for the in vitro antibacterial properties of the synthesized compounds against five Gram-positive and four Gram-negative human-pathogenic strains, which were assessed by both the agar diffusion method (based on inhibition zone (IZ)) and the broth dilution bioassay (for the determination of the half-maximal inhibitory concentration (IC50) values), using ampicillin as the reference antibiotic drug, are shown in Table 2 and Table 3.
(§2) The antibacterial activity of all synthesized compounds was evaluated against the Gram-negative strains E. coli (ATCC 25966), K. pneumonia (ATCC 700603), P. aeruginosa (ATCC 27853) and S. enteric (ATCC 43972) and against the Gram-positive strains B. cereus (ATCC 14579), B. subtilis (ATCC 6633), E. faecalis (ATCC 29122), S. aureus (ATCC 25923) and S. epidermidis (ATCC 14990), using the agar diffusion method through measuring the appearance of the inhibition zone on the surface of the top agar, as reported by Berghe and Vlietinck. Ampicillin (10 µg/well) was used as the positive reference standard. Bacterial viability was also investigated by determining the colony-forming ability (CFU) of bacteria incubated at different time intervals without or with appropriate amounts of the compound, which were mixed with 2 ×10^7 CFU/mL in sterile BHI and incubated under shaking for 60 min at 37 °C. Samples were serially diluted into sterile BHI, streaked onto media agar plates and incubated for 24 h at 37 °C. The antibacterial potency of the tested compounds was expressed as the residual number of CFUs with reference to the initial inoculums. The results presented as the half-maximal (50 %) inhibitory concentration (IC50) values are the means of three different measurements.

B. subtilis (ATCC 6633) [1] = assay: Antibacterial viability (CFU) assay, IC50; assay type: cell-based
Procedure: as §1, §2

[2] = tested on: S. epidermidis (ATCC 14990); assay: Antibacterial viability (CFU) assay, IC50; assay type: cell-based; conditions: Staphylococcus epidermidis, ATCC14990
Procedure: as §1, §2

[3] = tested on: K. pneumonia (ATCC 700603); assay: Antibacterial viability (CFU) assay, IC50; assay type: cell-based; conditions: Klebsiella pneumoniae, ATCC700603
Procedure: as §1, §2

E. coli (ATCC 25966) [4] = assay: Antibacterial viability (CFU) assay, IC50; assay type: cell-based; conditions: Escherichia coli, ATCC25966; E. coil (ATCC 25966)
Procedure: as §1, §2

B. cereus (ATCC 14579) [5] = assay: Antibacterial viability (CFU) assay, IC50; assay type: cell-based; conditions: Bacillus cereus, ATCC14579
Procedure: as §1, §2

E. faecalis (ATCC 29122) [6] = assay: Antibacterial viability (CFU) assay, IC50; assay type: cell-based; conditions: Enterococcus faecalis, ATCC29122
Procedure: as §1, §2

[7] = tested on: P. aeruginosa (ATCC 27853); assay: Antibacterial viability (CFU) assay, IC50; assay type: cell-based; conditions: Pseudomonas aeruginosa, ATCC27853
Procedure: as §1, §2

S. aureus (ATCC 25923) [8] = assay: Antibacterial viability (CFU) assay, IC50; assay type: cell-based; conditions: Staphylococcus aureus, ATCC25923
Procedure: as §1, §2

[9] = DPPH radical scavenging assay; conditions: for IC50: 0.03 to 1 mg/mL, 1 h, mean ± SD, triplicate, read-out: IC50 (mM) for DPPH Scavenging Potency
Procedure: The IC50 values for DPPH were calculated from the plot of the scavenging effect against the compound concentration.
The compounds’ capacities to scavenge the stable radical 1,1 diphenyl-2-picrylhydrazyl (DPPH) formed in solution by donation of a hydrogen atom or an electron was investigated according to the method described by Bersuder and coworkers. Due to the fact that the initial blue/purple solution of diphenyl picrylhydrazine changes to yellow in the presence of compounds with a capacity to scavenge DPPH free radicals, this reaction is used as a measure of a compound’s ability to scavenge any free radical. Briefly, a 0.5 mL volume of DPPH ethanolic solution was mixed with an equal volume of each sample concentration (0.03 to 1 mg/mL), shaken strongly and incubated at room temperature for 1 h in darkness. The absorbance of the residual DPPH radicals was measured at 519 nm and compared to that of the control (without the tested compound). DPPH radical scavenging was calculated using the following formula: Scavenging effect (%) = (1 − Acompound/AControl) × 100, where Acompound and Acontrol are the absorbances of the tested compound and of the control, respectively. A plot of the scavenging effect (%) versus the sample concentration was also performed to determine the compound concentration providing 50% inhibition (IC50).

HCT-116 cells = assay: Cell viability (cytotoxicity, LDH release) assay; assay type: cell-based; conditions: Homo sapiens, 24 h; for viability at 100 µg/mL: read-out: percent of viable cells
Procedure: The synthesized compounds were also examined at four concentrations (10, 25, 50 and 100 µg/mL) for their cytotoxic effects on human colorectal cancer HCT-116 cells after their incubation together for 24 h.
Cytotoxic potency was examined for a human colon cancer cell line HCT-116 (American Type Culture Collection; Manassas, VA, USA) using various amounts of each compound (10, 25, 50 and 100 µg). Samples were diluted in Dulbecco’s Modified Eagle’s Medium, consisting of 10% Fetal Bovine Serum, and added to cells grown and cultured for 24 h in a 5% CO2-humidified incubator at 37 °C. Then, the activity of lactate dehydrogenase released from damaged cells was determined in the collected supernatant aliquots using an ELISA endpoint assay (Benchmark Plus, Bio-Rad, Hercules, CA, USA). As positive and negative controls, respectively, 0.1% Triton X-100 in the assay medium and the assay medium only were used. Cell viability, shown as mean values ± SDs (n = 3), was expressed as a relative percentage of the OD values determined at 600 nm in compound-treated cells and the control.

B. subtilis (ATCC 6633) [10] = assay: Antibacterial agar diffusion method (inhibition zone); assay type: cell-based
Procedure: as §1, §2

[11] = tested on: S. epidermidis (ATCC 14990); assay: as above; assay type: cell-based
Procedure: as §1, §2

[12] = tested on: K. pneumonia (ATCC 700603); assay: as above; assay type: cell-based
Procedure: as §1, §2

E. coli (ATCC 25966) [13] = assay: as above; assay type: cell-based; conditions: E. coil (ATCC 25966)
Procedure: as §1, §2

B. cereus (ATCC 14579) [14] = assay: as above; assay type: cell-based
Procedure: as §1, §2

E. faecalis (ATCC 29122) [15] = assay: as above; assay type: cell-based
Procedure: as §1, §2

[16] = tested on: P. aeruginosa (ATCC 27853); assay: as above; assay type: cell-based
Procedure: as §1, §2

S. aureus (ATCC 25923) [17] = assay: as above; assay type: cell-based
Procedure: as §1, §2

[18] = Reducing power assay (FRAC, Fe3+ to Fe2+); conditions: 0-1 mg/mL, absorbance 700 nm
Procedure: Secondly, FRAC was determined over the concentration range of 0.0−1 mg/mL via monitoring Fe^3+−Fe^2+ transformation in the presence of the studied compounds and the reference antioxidant BHT to estimate the values of efficient concentration (EC50), expressed in mM.
The reducing power of the studied compounds was assessed according to Oyaizu’s method. Briefly, different concentrations (ranging from 0 to 1 mg/mL) of each tested compound were first mixed with 1 mL of 0.2 M sodium phosphate buffer (pH 6.6) and 1 mL of 1% potassium ferricyanide (K3Fe(CN)6) and incubated at 50 °C for 20 min. After the addition of 1.25 mL of 20% trichloroacetic acid (TCA), the mixture was centrifuged for 10 min at 3000 rpm and the upper layer solution was then mixed with 0.5 mL of 0.1% fresh ferric chloride and an equal volume of deionized water. Finally, the absorption of the resulting mixture was measured at 700 nm using a UV spectrophotometer against distilled water as the blank, while butylated hydroxytoluene (BHT) was used as a positive control. The sample ferric reducing power capability was indicated by increased absorbance.

[19] = Bacillus subtilis, ATCC6633, B. subtilis (ATCC 6633)

SMILES	IC50 (S. enteric (ATCC 43972); read-out: IC50)	IC50 (B. subtilis (ATCC 6633) [1]; [19])	IC50 [2]	IC50 [3]	IC50 (E. coli (ATCC 25966) [4])	IC50 (B. cereus (ATCC 14579) [5])	IC50 (E. faecalis (ATCC 29122) [6])	IC50 [7]	IC50 (S. aureus (ATCC 25923) [8])	melting point	IC50 [9]	DPPH Radical Scavenging Effenciency (%) at 1 mg/mL [9]	viability at 100 µg/mL (HCT-116 cells)	IZ (mm) (B. subtilis (ATCC 6633) [10])	IZ (mm) [11]	IZ (mm) [12]	IZ (mm) (E. coli (ATCC 25966) [13])	IZ (mm) (B. cereus (ATCC 14579) [14])	IZ (mm) (E. faecalis (ATCC 29122) [15])	EC50 [18]	other results
CCOC(=O)C1=C(C)OC(N)=C(C#N)C1c1cccc(OC)c1[N+](=O)[O-] (centres unmarked) [4b, 6-Amino-5-cyano-4-(3-methoxy-2-nitro-phenyl)-2-methyl-4H-pyran-3-carboxylic acid ethyl ester]	118 ± 3.34 µM	49.1 ± 1.39 µM	32.4 ± 1.39 µM	99.1 ± 2.5 µM	100 ± 3.9 µM	43.1 ± 1.98 µM	56.8 ± 1.59 µM	84 ± 5.01 µM	50.2 ± 1.39 µM	220 to 222 °C	2.56 ± 0.117 mM	23.25 ± 1.06%	11 to 32.5%	19.50 ± 0.71 mm	23.50 mm and 23.50 ± 0.71 mm	1.5 ± 0.7 mm	2.5 ± 0.71 mm	16.50 ± 0.71 mm	15.50 ± 0.71 mm	1200 ± 79 µM	IC50 (HCT-116 cells; read-out: Mean IC50 (µM) of cytotoxicity): 102 ± 8.83 µM; IC50 (HCT-116 cells; read-out: Mean IC50 (µg/mL) of cytotoxicity): 36.5 ± 3.18 µg/mL; IZ (mm) [16]: 2.5 ± 0.7 mm; IZ (mm) (S. aureus (ATCC 25923) [17]): 20.50 ± 0.71 mm
CCOC(=O)C1=C(C)OC(N)=C(C#N)C1c1cccc(O)c1Cl (centres unmarked) [4g, 6-Amino-4-(2-chloro-3-hydroxy-phenyl)-5-cyano-2-methyl-4H-pyran-3-carboxylic acid ethyl ester]	53 ± 3.29 µM	25.7 ± 1.7 µM	30.3 ± 1.49 µM	61.8 ± 2.99 µM	61.8 ± 5.38 µM	29.4 ± 1.49 µM	31.8 ± 1.49 µM	54.1 ± 4.48 µM	27.8 ± 1.25 µM	212 to 213 °C	0.329 ± 0.042 mM	90.50% and 90.50 ± 2.12%	86%	28.00 mm and 28.00 ± 1.41 mm	29.75 mm and 29.75 ± 0.35 mm	11.5 ± 0.7 mm	11.0 ± 1.41 mm	29.00 mm and 29.00 ± 1.41 mm	24.50 mm and 24.50 ± 0.71 mm	72 ± 4 µM	IC50 (S. enteric (ATCC 43972)): 54.1 µM; IZ (mm) [16]: 13.5 ± 0.7 mm; IZ (mm) (S. aureus (ATCC 25923) [17]): 27.50 mm and 27.50 ± 0.71 mm
COc1ccc(C2C(C#N)=C(N)OC(C)=C2C(=O)OCc2ccccc2)cc1 (centres unmarked) [4j, 6-Amino-5-cyano-4-(4-methoxy-phenyl)-2-methyl-4H-pyran-3-carboxylic acid benzyl ester]	51.8 ± 2.92 µM	23.6 to 36.8 µM	33.3 ± 1.7 µM	48.4 ± 3.99 µM	57.1 ± 0.8 µM	27.6 ± 1.51 µM	28.2 ± 1.51 µM	49.7 ± 4.78 µM	33.3 ± 1.7 µM	170 to 172 °C	0.194 mM	88.00% and 88.00 ± 1.41%	94%	21.50 mm and 21.50 ± 0.71 mm	26.65 mm and 26.65 ± 0.92 mm	12.0 ± 1.4 mm	10.5 ± 0.71 mm	24.50 mm and 24.50 ± 0.71 mm	23.20 mm and 23.20 ± 0.57 mm	74 ± 4 µM	IC50 (S. enteric (ATCC 43972)): 49.7 µM; IC50 (B. subtilis (ATCC 6633) [1]; B. subtilis (ATCC 6633)): 23.6 ± 0.37 µM; IZ (mm) [16]: 14.5 ± 0.7 mm; IZ (mm) (S. aureus (ATCC 25923) [17]): 25.25 mm and 25.25 ± 1.06 mm
Cc1cc(C(C)(C)C)c(O)c(C(C)(C)C)c1 [BHT, butylated hydroxytoluene, reference compound]											0.245 ± 0.027 mM	95.30% and 95.30 ± 0.42%								89 ± 3 µM	
